Laboratory results: ChEMBL document CHEMBL1123235, “Cholecystokinin antagonists. Synthesis of asperlicin analogues with improved potency and water solubility” (J Med Chem, 1986)

Each compound was assayed against T1, Cholecystokinin receptor (Rattus norvegicus, UniProt P30551+P30553) (assay: Inhibition of [125I]CCK binding to rat pancreatic Cholecystokinin receptor).
T1 sequence (P30551 whole entry): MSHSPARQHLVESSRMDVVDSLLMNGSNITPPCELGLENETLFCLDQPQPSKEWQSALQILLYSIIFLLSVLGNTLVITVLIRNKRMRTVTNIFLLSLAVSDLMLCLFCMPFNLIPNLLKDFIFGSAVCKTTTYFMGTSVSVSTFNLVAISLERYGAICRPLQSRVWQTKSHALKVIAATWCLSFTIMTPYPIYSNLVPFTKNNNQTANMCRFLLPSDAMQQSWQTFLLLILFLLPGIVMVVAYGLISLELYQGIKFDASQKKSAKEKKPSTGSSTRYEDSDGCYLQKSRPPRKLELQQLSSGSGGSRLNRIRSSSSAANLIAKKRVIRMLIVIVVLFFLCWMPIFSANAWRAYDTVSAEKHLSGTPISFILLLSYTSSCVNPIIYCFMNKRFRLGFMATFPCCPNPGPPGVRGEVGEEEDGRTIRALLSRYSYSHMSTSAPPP
T1 sequence (P30553 whole entry): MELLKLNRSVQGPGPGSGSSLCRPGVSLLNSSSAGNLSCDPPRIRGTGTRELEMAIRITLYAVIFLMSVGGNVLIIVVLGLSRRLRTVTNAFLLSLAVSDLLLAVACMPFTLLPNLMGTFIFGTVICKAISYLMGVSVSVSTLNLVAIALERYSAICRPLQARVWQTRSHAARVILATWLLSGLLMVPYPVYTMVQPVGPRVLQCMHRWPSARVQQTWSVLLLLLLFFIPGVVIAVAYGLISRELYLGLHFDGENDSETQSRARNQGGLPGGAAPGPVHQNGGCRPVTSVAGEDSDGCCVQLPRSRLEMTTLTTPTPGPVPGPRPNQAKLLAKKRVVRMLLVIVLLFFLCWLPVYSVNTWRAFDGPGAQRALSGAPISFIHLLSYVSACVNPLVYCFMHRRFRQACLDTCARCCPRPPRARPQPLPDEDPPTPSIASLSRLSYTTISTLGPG
Type: protein assay

SMILES | IC50 [µM]
CC(C)C[C@H]1C(=O)N2c3ccccc3[C@@](O)(C[C@@H]3NC(=O)c4ccccc4-n4c3nc3ccccc3c4=O)[C@H]2N1C(=O)C(Cc1ccc(OCc2ccccc2)cc1)NC(=O)OC(C)(C)C (stereo partly drawn) | > 100
CC(C)C[C@H]1C(=O)N2c3ccccc3[C@@](O)(C[C@@H]3NC(=O)c4ccccc4-n4c3nc3ccccc3c4=O)[C@H]2N1C(=O)OCc1ccccc1 | 5
CC(C)C[C@@H]1N[C@H]2N(C1=O)c1ccccc1[C@]2(C[C@@H]1NC(=O)c2ccccc2-n2c1nc1ccccc1c2=O)OC(=O)CCC(=O)O | 85
CCN1[C@H]2N(C(=O)[C@@H]1CC(C)C)c1ccccc1[C@@]2(O)C[C@@H]1NC(=O)c2ccccc2N2C(=O)c3ccccc3NC12 (stereo partly drawn) | 0.4
CC(C)C[C@H]1C(=O)N2c3ccccc3[C@](C[C@@H]3NC(=O)c4ccccc4-n4c3nc3ccccc3c4=O)(OC(=O)CCC(=O)OCc3ccccc3)[C@H]2N1C(=O)OCc1ccccc1 | 100
CC(=O)N1[C@H]2N(C(=O)[C@@H]1CC(C)C)c1ccccc1[C@@]2(O)C[C@@H]1NC(=O)c2ccccc2-n2c1nc1ccccc1c2=O | 22
CC(C)C[C@H]1C(=O)N2c3ccccc3[C@@](O)(C[C@@H]3NC(=O)c4ccccc4-n4c3nc3ccccc3c4=O)[C@H]2N1C(=O)C(CCCCNC(=O)OCc1ccccc1)NC(=O)OC(C)(C)C (stereo partly drawn) | > 100
CC(C)C[C@H]1C(=O)N2c3ccccc3[C@@](O)(C[C@@H]3NC(=O)c4ccccc4-n4c3nc3ccccc3c4=O)[C@H]2N1C(=O)CCC(=O)O | > 100
CC(C)C[C@H]1C(=O)N2c3ccccc3[C@@](O)(C[C@@H]3NC(=O)c4ccccc4-n4c3nc3ccccc3c4=O)[C@H]2N1C(=O)C(CCCNC(=O)OCc1ccccc1)NC(=O)OC(C)(C)C (stereo partly drawn) | 4.3
CC(C)C[C@H]1C(=O)N2c3ccccc3[C@@](O)(C[C@@H]3NC(=O)c4ccccc4N4C(=O)c5ccccc5NC34)[C@H]2N1C(=O)CCC(=O)O (stereo partly drawn) | 4.3
CC(C)C[C@H]1C(=O)N2c3ccccc3[C@@](O)(C[C@@H]3NC(=O)c4ccccc4-n4c3nc3ccccc3c4=O)[C@H]2N1C(=O)C(N)CCCCN.Cl (stereo partly drawn) | 2.5
CC(C)C[C@H]1C(=O)N2c3ccccc3[C@](C[C@@H]3NC(=O)c4ccccc4N4C(=O)c5ccccc5NC34)(OC(=O)CCC(=O)OCc3ccccc3)[C@H]2N1C(=O)OCc1ccccc1 (stereo partly drawn) | 100
CC(C)C[C@H]1C(=O)N2c3ccccc3[C@@](O)(C[C@@H]3NC(=O)c4ccccc4N4C(=O)c5ccccc5NC34)[C@H]2N1C(=O)CCC(=O)[O-].[Na+] (stereo partly drawn) | 1
CC(C)C[C@H]1C(=O)N2c3ccccc3[C@@](O)(C[C@@H]3NC(=O)c4ccccc4-n4c3nc3ccccc3c4=O)[C@H]2N1C(=O)C(Cc1ccc(O)cc1)NC(=O)OC(C)(C)C (stereo partly drawn) | 46
CC(C)C[C@@H]1N[C@H]2N(C1=O)c1ccccc1[C@@]2(O)C[C@@H]1NC(=O)c2ccccc2N2C(=O)c3ccccc3NC12 (stereo partly drawn) | 0.2
CC(C)C[C@H]1C(=O)N2c3ccccc3[C@@](O)(C[C@@H]3NC(=O)c4ccccc4N4C(=O)c5ccccc5NC34)[C@H]2N1C(=O)C(CCCNC(=O)OCc1ccccc1)NC(=O)OC(C)(C)C (stereo partly drawn) | 1.3
CC(C)C[C@H]1C(=O)N2c3ccccc3[C@@](O)(C[C@@H]3NC(=O)c4ccccc4N4C(=O)c5ccccc5NC34)[C@H]2N1CCCc1ccccc1 (stereo partly drawn) | 0.2
